# Test results reported in patent US6426331B1, “Inhibitors of STAT function” (Tularik Inc., priority 1998, dated 2002).
# pIC50: −log10 of the molar value.
# Biological target: T1, STAT6 (Homo sapiens, UniProt P42226)
# T1 sequence (P42226 1-847): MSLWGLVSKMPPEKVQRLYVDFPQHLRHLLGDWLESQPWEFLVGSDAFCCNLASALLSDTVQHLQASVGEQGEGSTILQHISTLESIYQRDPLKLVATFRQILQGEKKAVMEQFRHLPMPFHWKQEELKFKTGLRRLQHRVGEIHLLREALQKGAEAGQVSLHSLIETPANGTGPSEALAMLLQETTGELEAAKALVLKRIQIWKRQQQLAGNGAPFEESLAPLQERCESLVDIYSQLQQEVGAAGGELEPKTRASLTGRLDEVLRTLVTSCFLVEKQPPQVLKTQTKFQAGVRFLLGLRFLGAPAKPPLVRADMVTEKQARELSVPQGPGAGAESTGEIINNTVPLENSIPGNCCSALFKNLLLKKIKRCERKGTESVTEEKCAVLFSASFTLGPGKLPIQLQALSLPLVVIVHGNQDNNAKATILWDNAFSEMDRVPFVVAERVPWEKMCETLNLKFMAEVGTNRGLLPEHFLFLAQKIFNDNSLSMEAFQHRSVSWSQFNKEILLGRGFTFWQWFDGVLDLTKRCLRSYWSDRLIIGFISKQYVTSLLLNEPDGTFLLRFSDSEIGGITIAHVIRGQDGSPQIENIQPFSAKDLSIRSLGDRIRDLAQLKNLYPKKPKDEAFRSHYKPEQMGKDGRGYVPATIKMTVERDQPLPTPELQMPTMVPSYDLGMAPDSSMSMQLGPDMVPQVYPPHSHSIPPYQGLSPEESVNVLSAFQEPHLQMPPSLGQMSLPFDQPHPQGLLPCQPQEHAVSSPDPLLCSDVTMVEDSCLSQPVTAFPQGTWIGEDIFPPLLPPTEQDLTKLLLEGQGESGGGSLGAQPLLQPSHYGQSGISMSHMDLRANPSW
# Experiment: Inhibition of STAT6 binding (duplex formation)
# Details: Table 1; inhibitors of STAT6 binding (duplex formation)
# Description: The compounds of the present invention can be evaluated for STAT binding activity using methods such as those described in U.S. Pat. No. 6,207,391 (for STAT6 binding). Other assays for STAT binding can be found in, for example, U.S. Pat. Nos. 5,618,693, 5,639,858 and 5,756,700.
# Using methods similar to those described in Examples 1 and 2, the compounds provided in Table 1 were prepared and evaluated as inhibitors of STAT6 binding (duplex formation). The assay is described in U.S. Pat. No. 6,207,391, filed Mar. 31, 1998. In each of the tables below: a + symbol indicates and IC50 of >100 μM; a ++ symbol indicates and IC50 of 50-100 μM; a +++ symbol indicates and IC50 of 1-50 μM; and a ++++ symbol indicates and IC50 of <1.0 μM.
row,pIC50,Structure (SMILES)
1,< 4.00,"Cc1ccc(S(=O)(=O)N[C@@H]2C[C@@H](C(=O)N(Cc3ccccc3)c3ccc(C(N)=O)cc3)N(C(=O)[C@@H](NC(=O)/C=C/c3ccc(C(O)C(=O)O)cc3)C(C)(C)C)C2)cc1 (stereo partly shown) [drawing 46: H, —NH-Tosyl, 4-CONH2, H]"
2,4.30 to 6.00,"CC(C)(C)[C@H](NC(=O)/C=C/c1ccc(C(O)C(=O)O)cc1)C(=O)N1C[C@H](NS(C)(=O)=O)C[C@H]1C(=O)N(Cc1ccccc1)c1ccc(C(N)=O)cc1 (stereo partly shown) [drawing 46: H, —NHSO2CH3,4-CONH2, H]"
3,4.00 to 4.30,"CN(C)[C@@H]1C[C@@H](C(=O)N(Cc2ccccc2)c2ccc(C(N)=O)cc2)N(C(=O)[C@@H](NC(=O)/C=C/c2ccc(C(O)C(=O)O)cc2)C(C)(C)C)C1 (stereo partly shown) [drawing 46: H, —N(CH3)2,4-CONH2, H]"
4,4.30 to 6.00,"CC(C)(C)[C@H](NC(=O)/C=C/c1ccc(C(O)C(=O)O)cc1)C(=O)N1C[C@H](NC(=O)OCc2ccccc2)C[C@H]1C(=O)N(Cc1ccccc1)c1ccc(C(N)=O)cc1 (stereo partly shown) [drawing 46: H, —NHCO2Bn, 4-CONH2, H]"

# Same assay, conditions: Table 2; STAT6 binding
row,pIC50,Structure (SMILES)
1,4.30 to 6.00,CC(C)(C)[C@H](NC(=O)/C=C/c1ccc(C(O)P(=O)(O)O)cc1)C(=O)N1CCC[C@H]1C(=O)N(c1ccccc1)c1ccc(C(N)=O)cc1 (stereo partly shown)
2,< 4.00,CC(C)(C)[C@H](NC(=O)/C=C/c1cccc(C(=O)O)n1)C(=O)N1CCC[C@H]1C(=O)N(c1ccccc1)c1ccc(C(N)=O)cc1
3,4.30 to 6.00,CC(C)(C)[C@H](NC(=O)/C=C/c1ccc(C(=O)O)c(C(=O)O)c1)C(=O)N1CCC[C@H]1C(=O)N(c1ccccc1)c1ccc(C(N)=O)cc1
4,4.30 to 6.00,COc1cc(/C=C/C(=O)N[C@H](C(=O)N2CCC[C@H]2C(=O)N(c2ccccc2)c2ccc(C(N)=O)cc2)C(C)(C)C)ccc1P(=O)(O)O
5,< 4.00,CC(C)(C)[C@H](NC(=O)/C=C/c1cccc(C(=O)O)c1)C(=O)N1CCC[C@H]1C(=O)N(c1ccccc1)c1ccc(C(N)=O)cc1
6,< 4.00,CC(C)(C)[C@H](NC(=O)/C=C/c1cccc(CC(=O)O)c1)C(=O)N1CCC[C@H]1C(=O)N(c1ccccc1)c1ccc(C(N)=O)cc1
7,4.30 to 6.00,CC(C)(C)[C@H](NC(=O)/C=C/c1ccc(CP(=O)(O)O)cc1)C(=O)N1CCC[C@H]1C(=O)N(c1ccccc1)c1ccc(C(N)=O)cc1
8,< 4.00,CC(C)(C)[C@H](NC(=O)/C=C/c1ccc(C(=O)O)cn1)C(=O)N1CCC[C@H]1C(=O)N(c1ccccc1)c1ccc(C(N)=O)cc1
9,< 4.00,CC(C)(C)[C@H](NC(=O)/C=C/c1ccc(CC(=O)O)cc1)C(=O)N1CCC[C@H]1C(=O)N(c1ccccc1)c1ccc(C(N)=O)cc1
10,< 4.00,CC(C)(C)[C@H](NC(=O)/C=C/c1ccc(OCC(=O)O)cc1)C(=O)N1CCC[C@H]1C(=O)N(c1ccccc1)c1ccc(C(N)=O)cc1
11,> 6.00,CC(C)(C)[C@H](NC(=O)/C=C/c1ccc(C(F)(F)P(=O)(O)O)cc1)C(=O)N1CCC[C@H]1C(=O)N(c1ccccc1)c1ccc(C(N)=O)cc1

# Same assay, conditions: Table 3; STAT6 binding
row,Structure (SMILES),pIC50
1,CC(C)(C)C(NC(=O)C=Cc1ccc(OP(=O)(O)O)cc1)C(=O)N1CCCC1C(=O)N(c1ccccc1)c1ccccc1 (stereo not shown) [drawing 69: H],> 6.00
2,COc1ccc(N(C(=O)C2CCCN2C(=O)C(NC(=O)C=Cc2ccc(OP(=O)(O)O)cc2)C(C)(C)C)c2ccccc2)cc1 (stereo not shown) [drawing 69: OCH3],> 6.00
3,CC(C)(C)C(NC(=O)C=Cc1ccc(OP(=O)(O)O)cc1)C(=O)N1CCCC1C(=O)N(c1ccccc1)c1ccc(C(=O)O)cc1 (stereo not shown) [drawing 69: CO2H],4.30 to 6.00
4,CC(C)(C)C(NC(=O)C=Cc1ccc(OP(=O)(O)O)cc1)C(=O)N1CCCC1C(=O)N(c1ccccc1)c1ccc(Cl)cc1 (stereo not shown) [drawing 69: Cl],> 6.00

# Same assay, conditions: Table 4; STAT6 binding
row,Structure (SMILES),pIC50
1,"CC(=O)NCc1ccc(N(Cc2ccc(C(N)=O)cc2)C(=O)C2CCCN2C(=O)C(NC(=O)C=Cc2ccc(OP(=O)(O)O)cc2)C(C)(C)C)cc1 (stereo not shown) [drawing 70: 4-CH2NHAc, 4-CONH2]",> 6.00
2,"CC(C)(C)C(NC(=O)C=Cc1ccc(OP(=O)(O)O)cc1)C(=O)N1CCCC1C(=O)N(Cc1ccc(-c2ccccc2)cc1)c1ccccc1 (stereo not shown) [drawing 70: H, 4-phenyl]",4.30 to 6.00
3,"CC(C)(C)C(NC(=O)C=Cc1ccc(OP(=O)(O)O)cc1)C(=O)N1CCCC1C(=O)N(Cc1ccc(I)cc1)c1ccccc1 (stereo not shown) [drawing 70: H, 4-I]",> 6.00
4,"CC(=O)NCc1cccc(N(Cc2ccc(C(N)=O)cc2)C(=O)C2CCCN2C(=O)C(NC(=O)C=Cc2ccc(OP(=O)(O)O)cc2)C(C)(C)C)c1 (stereo not shown) [drawing 70: 3-CH2NHAc, 4-CONH2]",> 6.00

# Same assay, conditions: Table 5; STAT6 binding
row,Structure (SMILES),pIC50
1,"CC(C)(C)C(NC(=O)C=Cc1ccc(OP(=O)(O)O)cc1)C(=O)N1CCCC1C(=O)N(Cc1ccccc1)Cc1ccc(C(N)=O)cc1 (stereo not shown) [drawing 71: 4-CONH2, H]",> 6.00
2,"CC(C)(C)C(NC(=O)C=Cc1ccc(OP(=O)(O)O)cc1)C(=O)N1CCCC1C(=O)N(Cc1ccc(C#N)cc1)Cc1ccc(C(N)=O)cc1 (stereo not shown) [drawing 71: 4-CONH2,4-CN]",> 6.00
3,"CC(=O)NCc1cccc(CN(Cc2cccc(C(N)=O)c2)C(=O)C2CCCN2C(=O)C(NC(=O)C=Cc2ccc(OP(=O)(O)O)cc2)C(C)(C)C)c1 (stereo not shown) [drawing 71: 3-CONH2,3-CH2NHAc]",4.30 to 6.00
4,"CC(=O)NCc1ccc(CN(Cc2ccc(C(N)=O)cc2)C(=O)C2CCCN2C(=O)C(NC(=O)C=Cc2ccc(OP(=O)(O)O)cc2)C(C)(C)C)cc1 (stereo not shown) [drawing 71: 4-CONH2,4-CH2NHAc]",> 6.00
5,"CC(=O)NCc1cccc(CN(Cc2ccc(C(N)=O)cc2)C(=O)C2CCCN2C(=O)C(NC(=O)C=Cc2ccc(OP(=O)(O)O)cc2)C(C)(C)C)c1 (stereo not shown) [drawing 71: 4-CONH2,3-CH2NHAc]",> 6.00
